From patent EP0452680A1 (priority 1990, dated 1991)

Key:
[1] = in vitro; conditions: monkey, vero cells
[2] = in vitro; conditions: human, hela cells
[3] = tested on: Herpesviren; assay: General statement on antiviral activity (no specific test named); conditions: qualitative statement in the description
[4] = in vitro; conditions: bovine, mdbk cells
[5] = in vitro; conditions: monkey, vero cells; remark: listed apart in the source

Row | SMILES | MNTC [1] | MNTC [2] | antivirale Aktivität gegen Herpesviren [3] | MNTC [4] | MNTC [5]
1 | CC(C)OCC(COC(C)C)OCn1cnc2nc(N)ncc21 [Beispiel 6.7., 2-Amino-7-[1,3-bis(isopropoxy)-2-propoxymethyl]purin] | > 400 µg/mL | > 400 µg/mL | besonders hohen antiviralen Aktivität | > 400 µg/mL | > 400 µg/mL
2 | CC(C)OCC(CO)OCn1cnc2nc(N)ncc21 (centres unmarked) [Beispiel 6.10., 2-Amino-7-(1-hydroxy-3-isopropoxy-2-propoxymethyl)-purin] | > 400 µg/mL | > 400 µg/mL | besonders hohen antiviralen Aktivität | > 400 µg/mL | > 400 µg/mL
3 | Nc1nc2ncn(COC(CO)CO)c2c(=O)[nH]1 [reference compound] | > 400 µg/mL | > 400 µg/mL |  | > 400 µg/mL | > 400 µg/mL
4 | Nc1nc(O)c2ncn(COC(CO)CO)c2n1 [reference compound] | > 400 µg/mL | > 400 µg/mL |  | > 133 µg/mL | > 400 µg/mL
5 | Nc1ncc2c(ncn2COC(CO)CO)n1 [Beispiel 6.12., 2-Amino-7-(1,3-dihydroxy-2-propoxymethyl)-purin] | 133 µg/mL | 44.4 µg/mL | besonders hohen antiviralen Aktivität | > 400 µg/mL | 133 µg/mL
